Results from patent US5288723A, “A composition and a method of using veratridine and epinephrine as a local anesthetic” (priority 1991, dated 1994).
Entries after “also recorded” stand apart in the source; their conditions may differ.

Experiments:
rat sciatic nerve [1] = assay: Motor block of rat sciatic nerve in vivo (toe curling and/or foot dragging); parameters: species or system Male Sprague-Dawley rats
rat sciatic nerve [2] = assay: Sensory block of rat sciatic nerve in vivo (nocifensive withdrawal reflex to pinch of the foot pad); parameters: species or system Male Sprague-Dawley rats; details: 2%=74 mM
[3] = Toxic signs (salivation) in rats after sciatic nerve injection; format: in vivo, Male Sprague-Dawley rats; details: co-injection of VTD with EPI
Experimental: Male Sprague-Dawley rats (200-250 g) were divided into 4 groups of 10 each. 0.1 ml of VTD alone at 0.2, 0.5 or 0.7 mM or vehicle (saline) was injected at the depression between the femoral head and the hip. The same animals were injected with VTD with epinephrine (EPI, 1:200,000) one week later, using the previously uninjected leg. Motor and sensory functions were rated by the respective monitoring of toe curling and/or foot dragging, and by testing the nocifensive withdrawal reflex to pinch of the foot pad of the injected hindlimb. Saline alone affected neither function.

CCN(CC)CC(=O)Nc1c(C)cccc1C [lidocaine]
Motor blockade duration (rat sciatic nerve [1]; 2%=74 mM): 75 min | Motor blockade onset (rat sciatic nerve [1]; 2%=74 mM): 1.9 min | Motor blockade, % of rats (rat sciatic nerve [1]; 2%=74 mM): 96% | Motor blockade, fraction of rats (rat sciatic nerve [1]; 2%=74 mM): 216/224 | Sensory blockade duration (rat sciatic nerve [2]): 78 min | Sensory blockade onset (rat sciatic nerve [2]): 1.3 min | Sensory blockade, % of rats (rat sciatic nerve [2]): 100% | Sensory blockade, fraction of rats (rat sciatic nerve [2]): 5/5

CNC[C@H](O)c1ccc(O)c(O)c1 [EPI, epinephrine]
Effect of EPI co-injection on VTD toxicity [3]: decrease VTD-associated toxicity; also recorded: decreases the toxicity associated with higher concentrations of VTD

CCCCN1CCCCC1C(=O)Nc1c(C)cccc1C (stereo not shown) [bupivacaine]
Motor blockade duration (rat sciatic nerve [1]; 0.75%=23 mM): 161 min | Motor blockade onset (rat sciatic nerve [1]; 0.75%=23 mM): 4.8 min | Motor blockade, % of rats tested (rat sciatic nerve [1]; 0.75%=23 mM): 86% | Motor blockade, fraction of rats tested (rat sciatic nerve [1]; 0.75%=23 mM): 205/239
